Source: patent US9745355B2, “Binding-site modified lectins and uses thereof” (SmartCells, Inc., priority 2009, dated 2017)

Test system: formaldehyde-stabilized rabbit erythrocytes
Test: MAC assay (minimum agglutinating concentration)
Assay type: cell-based
Details: 2% v/v suspension of formaldehyde-stabilized rabbit erythrocytes
From the text: Enzymol. 83:368-373, 1982. Formaldehyde-treated rabbit erythrocytes, prepared by published procedures (Nowak et al., Biochim. Biophys. […] The MAC was defined as the lectin protein concentration (exclusive of attached chemical compounds) in the highest dilution showing visible agglutination. […] An aliquot of the formaldehyde-treated Rabbit erythrocytes was then pipetted into each well. At low lectin concentrations, there was insufficient lectin to form a network of crosslinked cells and the cells dropped to the bottom of the V-well forming what looks like a dark pin-point circle at the bottom of the plate when viewed from above. However, once the lectin concentration reached the minimum agglutination concentration (MAC), the lectin molecules began crosslinking the saccharide receptors on the erythrocyte surfaces, resulting in a network that cannot settle to the bottom of the V-well forming what looks like a large, opaque, diffuse circle when viewed from above. The lowest concentration that produces the large diffuse circle is the MAC value for a particular formulation.

Q: With concanavalin A [Umodified] as the substance, how does the “MAC” value read?
A: The value was <1 µg/mL.
